Key:
human recombinant CAIV = target: T1, human recombinant CAIV (Homo sapiens, UniProt P22748); set-up: method as in PMID 36271018; details: FTSA, 37 °C, pH 7.0; cited from earlier work
T1 construct: Most isozymes were truncated, and only the catalytic domains of the proteins were produced; made in house; host or cells: bacterial expression system

human recombinant CAVA = target: T2, human recombinant CAVA (Homo sapiens, UniProt P35218); set-up: method as in PMID 36271018; details: FTSA, 37 °C, pH 7.0; cited from earlier work
T2 construct: Most isozymes were truncated, and only the catalytic domains of the proteins were produced; made in house; host or cells: bacterial expression system
T2 sequence (P35218 39-296 limits assumed): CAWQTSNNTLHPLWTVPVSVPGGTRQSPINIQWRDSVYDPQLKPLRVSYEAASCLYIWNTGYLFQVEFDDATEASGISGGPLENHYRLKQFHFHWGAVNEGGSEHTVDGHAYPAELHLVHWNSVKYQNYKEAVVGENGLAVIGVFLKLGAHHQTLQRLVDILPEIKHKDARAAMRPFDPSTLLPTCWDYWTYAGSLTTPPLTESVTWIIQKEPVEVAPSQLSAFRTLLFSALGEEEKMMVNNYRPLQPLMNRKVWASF

human recombinant CAIII = target: T3, human recombinant CAIII (Homo sapiens, UniProt P07451); set-up: method as in PMID 36271018; details: FTSA, 37 °C, pH 7.0; cited from earlier work
T3 construct: made in house; host or cells: bacterial expression system
T3 sequence (P07451 whole entry): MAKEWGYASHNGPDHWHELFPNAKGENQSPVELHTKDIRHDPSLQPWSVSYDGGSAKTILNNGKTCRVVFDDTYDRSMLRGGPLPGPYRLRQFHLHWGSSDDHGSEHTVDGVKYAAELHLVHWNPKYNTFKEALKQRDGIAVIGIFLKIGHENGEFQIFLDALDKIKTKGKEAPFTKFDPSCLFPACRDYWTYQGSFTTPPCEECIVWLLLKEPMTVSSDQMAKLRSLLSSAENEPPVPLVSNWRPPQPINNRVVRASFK

human recombinant CAXIV = target: T4, human recombinant CAXIV (Homo sapiens, UniProt Q9ULX7); set-up: method as in PMID 36271018; details: FTSA, 37 °C, pH 7.0; cited from earlier work
T4 construct: Most isozymes were truncated, and only the catalytic domains of the proteins were produced; made in house; host or cells: bacterial expression system
T4 sequence (Q9ULX7 20-278 limits assumed): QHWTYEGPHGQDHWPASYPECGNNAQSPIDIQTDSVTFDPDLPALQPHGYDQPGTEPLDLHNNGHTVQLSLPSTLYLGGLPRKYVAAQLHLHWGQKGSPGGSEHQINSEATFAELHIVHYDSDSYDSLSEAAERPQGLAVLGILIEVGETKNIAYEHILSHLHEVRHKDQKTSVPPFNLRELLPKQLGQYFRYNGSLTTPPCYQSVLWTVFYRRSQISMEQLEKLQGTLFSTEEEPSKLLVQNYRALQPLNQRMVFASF

human recombinant CAVB = target: T5, human recombinant CAVB (Homo sapiens, UniProt Q9Y2D0); set-up: method as in PMID 36271018; details: FTSA, 37 °C, pH 7.0; cited from earlier work
T5 construct: Most isozymes were truncated, and only the catalytic domains of the proteins were produced; made in house; host or cells: bacterial expression system
T5 sequence (Q9Y2D0 37-296 limits assumed): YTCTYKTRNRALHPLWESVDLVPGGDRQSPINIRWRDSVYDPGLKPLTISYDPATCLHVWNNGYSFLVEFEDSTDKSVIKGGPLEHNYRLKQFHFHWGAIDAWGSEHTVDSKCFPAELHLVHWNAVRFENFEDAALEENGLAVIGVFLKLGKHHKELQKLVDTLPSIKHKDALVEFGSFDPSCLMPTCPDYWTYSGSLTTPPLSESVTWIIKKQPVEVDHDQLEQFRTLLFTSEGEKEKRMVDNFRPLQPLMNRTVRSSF

human recombinant CAII = target: T6, human recombinant CAII (Homo sapiens, UniProt P00918); set-up: method as in PMID 36271018; details: FTSA, 37 °C, pH 7.0; cited from earlier work
T6 construct: made in house; host or cells: bacterial expression system

human recombinant CAXII = target: T7, human recombinant CAXII (Homo sapiens, UniProt O43570); set-up: method as in PMID 36271018; details: FTSA, 37 °C, pH 7.0; cited from earlier work
T7 construct: Most isozymes were truncated, and only the catalytic domains of the proteins were produced; made in house; host or cells: bacterial expression system
T7 sequence (O43570 30-289 limits assumed): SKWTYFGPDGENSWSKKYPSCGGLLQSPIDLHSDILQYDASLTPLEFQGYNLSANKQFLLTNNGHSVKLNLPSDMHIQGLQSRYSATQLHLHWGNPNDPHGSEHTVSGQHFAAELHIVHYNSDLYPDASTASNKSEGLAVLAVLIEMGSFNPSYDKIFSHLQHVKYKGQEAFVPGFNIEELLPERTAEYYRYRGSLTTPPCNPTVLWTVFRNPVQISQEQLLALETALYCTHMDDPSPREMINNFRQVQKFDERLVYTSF

human recombinant CAVI = target: T8, human recombinant CAVI (Homo sapiens, UniProt P23280); set-up: method as in PMID 36271018; details: FTSA, 37 °C, pH 7.0; cited from earlier work
T8 construct: Most isozymes were truncated, and only the catalytic domains of the proteins were produced; made in house; host or cells: bacterial expression system
T8 sequence (P23280 21-278 limits assumed): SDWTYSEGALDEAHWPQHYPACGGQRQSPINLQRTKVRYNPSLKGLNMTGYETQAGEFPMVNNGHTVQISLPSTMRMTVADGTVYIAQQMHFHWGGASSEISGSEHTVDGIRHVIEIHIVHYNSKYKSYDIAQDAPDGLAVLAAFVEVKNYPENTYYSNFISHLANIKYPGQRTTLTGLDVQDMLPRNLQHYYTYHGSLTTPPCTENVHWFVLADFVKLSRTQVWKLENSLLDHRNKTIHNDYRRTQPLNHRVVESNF

human recombinant CAVII = target: T9, human recombinant CAVII (Homo sapiens, UniProt P43166); set-up: method as in PMID 36271018; details: FTSA, 37 °C, pH 7.0; cited from earlier work
T9 construct: made in house; host or cells: bacterial expression system
T9 sequence (P43166 whole entry): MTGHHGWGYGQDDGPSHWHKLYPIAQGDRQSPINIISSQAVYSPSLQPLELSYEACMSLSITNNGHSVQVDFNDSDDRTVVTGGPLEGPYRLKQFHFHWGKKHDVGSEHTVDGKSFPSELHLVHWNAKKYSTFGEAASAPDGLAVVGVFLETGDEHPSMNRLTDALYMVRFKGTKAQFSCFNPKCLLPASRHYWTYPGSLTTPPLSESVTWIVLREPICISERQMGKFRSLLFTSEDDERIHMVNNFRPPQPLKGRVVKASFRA

[1] = target: T10, CAIX expressed on cell membranes of HeLa cells (Homo sapiens, UniProt Q16790); test: Fluorescence microscopy staining of live HeLa cells; type: cell-based; details: 250 nM compound; pCMV-CAIX-transfected cells, normoxia
T10 construct: an open reading frame for the full-length CAIX protein (1–459 amino acids) without a tag; expressed in transfected cells; host or cells: HeLa cells transfected with pCMV-CAIX (TurboFect), normoxia
Source text: Live HeLa cell culture was used for visualization of the NIR-fluorescent compound binding to CAIX expressed on cell membranes (Figures 3 and S2). […] Hypoxic conditions were insufficient for CAIX-specific fluorescence detection (Figure S3). Transfected cells expressed 10-fold more CAIX protein than cells grown under hypoxia, as determined by dosing the fluorescein-containing compound GZ19-32. […] We should point out that microphotographs in Figures 3 and S2 were taken at different exposure times to ensure good visualization quality. Nevertheless, all four compounds were suitable for direct visualization of CAIX expressed on transfected cell membranes.
For visualization of CAIX in live cells, HeLa cells were seeded in 12-well plates, and the next day they were transfected with the pCMV-CAIX plasmid to induce CAIX expression under normoxia. The TurboFect Transfection Reagent (Thermo Fisher) was used for this purpose according to manufacturer’s directions. Cells were stained and visualized next day after transfection. Nontransfected cells, grown under normoxia, were used as a control. For the induction of CAIX expression without transfection, cells were cultured under hypoxia for 3 days.
For cell imaging, live cells were incubated with the recombinant monoclonal antibody to CAIX (M75) (Absolute Antibody, #Ab00414–1.1) in the CO2 incubator for 30 min. The antibody stock solution (1 mg/mL) was used at a dilution of 1:150 in FluoroBright (FB)(Thermo Fisher) medium. After washing (3 × 5 min with DMEM in RT, gentle rock), cells were incubated with secondary Alexa Fluor 488 goat antimouse antibodies (2 mg/mL, Thermo Fisher), at a dilution of 1:200 in FB, in a CO2 incubator for 30 min. After washing (3 × 5 min with DMEM in RT and 2 × 1 min with PBS), cells were incubated with NIR-fluorescent inhibitors ([…] in PBS) in a CO2 incubator for 5–8 min. After washing (2 min + 2 × 1 min with PBS), PBS was replaced by FB, and 15 μL of NucBlue Live Cell Stain ReadyProbes reagent (Thermo Fisher) was added per well. After 5 min, cells were observed and photographed using an automated fluorescence microscope EVOS FL Auto (Thermo Fisher).

T1 sequence (P22748 21-285 limits assumed): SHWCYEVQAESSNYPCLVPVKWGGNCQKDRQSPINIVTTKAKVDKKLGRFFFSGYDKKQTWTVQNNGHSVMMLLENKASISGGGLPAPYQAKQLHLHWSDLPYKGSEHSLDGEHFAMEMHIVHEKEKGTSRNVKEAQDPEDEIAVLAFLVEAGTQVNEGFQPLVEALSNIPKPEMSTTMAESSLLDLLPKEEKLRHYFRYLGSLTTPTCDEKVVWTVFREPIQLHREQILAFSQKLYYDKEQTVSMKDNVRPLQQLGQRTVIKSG

In the case of NS(=O)(=O)c1c(F)c(F)c(S(=O)(=O)CCC(=O)O)c(NC2CCCCCCC2)c1F [GZ18-23, 3-((2-(Cyclooctylamino)-3,5,6-trifluoro-4-sulfamoylphenyl)sulfonyl)propanoic Acid], the Kd (human recombinant CAIV) is given as 100 nM, the Kd (human recombinant CAVA) is given as 10000 nM and the Kd (human recombinant CAIII) is given as no less than 200000 nM. The Kd (human recombinant CAXIV) was 3 nM, the Kd (human recombinant CAVB) was 200 nM and the Kd (human recombinant CAII) was 200 nM. The melting point was 143 to 144 °C, the Kd (human recombinant CAXII) was 1.4 nM and the Kd (human recombinant CAVI) was 100 nM. The Kd (human recombinant CAVII) was 40 nM.
In the case of CC1(C)C(/C=C/C2=C(Oc3ccc(CCC(=O)O)cc3)C(=C/C=C3\N(CCCCS(=O)(=O)[O-])c4ccccc4C3(C)C)/CCC2)=[N+](CCCCS(=O)(=O)[O-])c2ccccc21.[Na+] [GZ21-20, Sodium 4-((Z)-2-((E)-2-(2-(4-(2-Carboxyethyl)phenoxy)-3-((E)-2-(3,3-dimethyl-1-(4-sulfonatobutyl)-3H-indol-1-ium-2-yl)vinyl)cyclohex-2-en-1-ylidene)ethylidene)-3,3-dimethylindolin-1-yl)butane-1-sulfonate], the melting point is reported as 225 to 228 °C and the “staining of HeLa cells (NIR fluorescence microscopy)” value [1] is reported as “no visual response on transfected cells”.

Reference: paper PMC11191402, “High-Affinity NIR-Fluorescent Inhibitors for Tumor Imaging via Carbonic Anhydrase IX” (Bioconjugate Chemistry, 2024)
